Read-outs that look alike come from different tables or passages of the source.
How the values were obtained:
[1] = target: T1, PERK (Homo sapiens, UniProt Q9NZJ5); experiment: PERK biochemical LanthaScreen TR-FRET assay (GFP-eIF2a phosphorylation)
T1 sequence (Q9NZJ5 30-1116): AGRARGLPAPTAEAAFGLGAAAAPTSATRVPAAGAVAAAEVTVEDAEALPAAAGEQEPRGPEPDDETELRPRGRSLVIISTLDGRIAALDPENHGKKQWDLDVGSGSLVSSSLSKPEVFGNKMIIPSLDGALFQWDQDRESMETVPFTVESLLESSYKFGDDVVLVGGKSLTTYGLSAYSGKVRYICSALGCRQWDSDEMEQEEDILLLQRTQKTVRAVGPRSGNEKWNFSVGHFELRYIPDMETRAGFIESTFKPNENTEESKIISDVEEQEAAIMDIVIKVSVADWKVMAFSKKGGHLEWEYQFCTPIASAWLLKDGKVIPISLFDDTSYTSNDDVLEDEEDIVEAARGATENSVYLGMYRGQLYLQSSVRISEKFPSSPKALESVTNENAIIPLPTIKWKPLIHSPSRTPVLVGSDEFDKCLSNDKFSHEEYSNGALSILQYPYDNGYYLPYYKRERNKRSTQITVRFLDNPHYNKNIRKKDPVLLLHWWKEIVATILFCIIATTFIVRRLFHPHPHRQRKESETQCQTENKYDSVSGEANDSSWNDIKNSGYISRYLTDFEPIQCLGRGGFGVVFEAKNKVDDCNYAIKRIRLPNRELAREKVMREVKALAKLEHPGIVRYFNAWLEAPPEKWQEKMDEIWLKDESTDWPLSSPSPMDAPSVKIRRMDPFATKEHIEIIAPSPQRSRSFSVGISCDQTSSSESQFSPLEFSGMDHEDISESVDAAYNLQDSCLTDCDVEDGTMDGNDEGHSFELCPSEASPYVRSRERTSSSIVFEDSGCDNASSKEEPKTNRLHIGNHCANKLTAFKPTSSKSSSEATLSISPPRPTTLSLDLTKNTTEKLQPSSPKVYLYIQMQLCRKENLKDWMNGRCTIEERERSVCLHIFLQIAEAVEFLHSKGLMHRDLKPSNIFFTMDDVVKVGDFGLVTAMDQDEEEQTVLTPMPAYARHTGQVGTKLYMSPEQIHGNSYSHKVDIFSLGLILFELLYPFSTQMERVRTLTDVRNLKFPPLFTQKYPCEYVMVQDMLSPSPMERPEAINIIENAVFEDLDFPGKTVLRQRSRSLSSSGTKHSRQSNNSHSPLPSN
Description: Methods used to evaluate biochemical PERK activity are described and published elsewhere. In brief, biochemical PERK activity is evaluated using a LanthaScreenTM ([…]) TR-FRET assay to detect phosphorylation of a GFP-tagged eIF2a substrate (ThermoFisher). Excitation at […] of a terbium chelate donor fluorophore in an eIF2a antibody results in energy transfer to GFP acceptor fluorophore upon eIF2a phosphorylation by PERK. Reaction buffer was composed of 50 mM HEPES (pH 7.4), 10 mM MgCl2, 1 mM EGTA and 0.01% (v/v) BrijTM-35. Reactions were initiated by the addition of substrate and ATP, followed by incubation for 1 h at RT prior to addition of EDTA and the anti-peIF2a antibody. FRET was measured by an EnVision Plate Reader (PerkinElmer). Data were plotted as percent inhibition along a 10-point 3-fold dilution series of inhibitors. IC50 values were calculated using 4-parameter logistical fitting in XLFit.
The PERK activity of analog I was evaluated using cell-free biochemical assays. In these assays, PERK phosphorylation of eIF2a was assessed using a FRET-based labelled protein assay. Compounds were then evaluated for cellular activity by quantifying inhibition of eIF2a phosphorylation in HEK293 cells treated with the ER inducer tunicamycin [7].

[2] = Mouse plasma PK after oral gavage; format: in vivo; conditions: female, CD1, mouse, mice, 10 mg/kg PO
Description: For PK analysis of pyrrolopyrimidine analogs in mouse, rat, and dog plasma, the oral formulation was prepared as a solution containing 20% (w/v) Captisol in 25 mM NaH2PO4 buffer (pH 2). Compounds were administered orally by gavage at 10 mg/kg to female CD1 mice. After dosing, plasma samples were collected to characterize the PK profiles at 0.25, 0.5, 1, 2, 4, 8, 12 and 24 h post-dose. The plasma concentration of compound was determined by protein precipitation with acetonitrile and liquid chromatography with mass spectrometric detection (LC-MS/MS). Parameters were estimated using Phoenix (WinNonlin) pharmacokinetic software version 6.1.0 using a non-compartmental approach consistent with the oral route of administration. PK analysis of 26 in plasma and pancreas followed a similar analytical method as above, with minor modifications. Compound 26 was suspended in a vehicle consisting of 0.5% methylcellulose (400 cP) and 0.1% Tween80 in water and administered to BALB/c nude mice by oral gavage at 0.3, 1, 3, 10, 30 mg/kg. Plasma and pancreas were sampled from 5 mice per group following a single oral administration at 1, 4, 8, 12, 24 h post-dose.

[3] = cell-free TR-FRET, GFP-eIF2a substrate, read-out: PERK IC50

| SMILES | IC50 [1, 3] | AUC(0-t) [2] | Cmax [2] | bioavailability [2] | half-life [2] | IC50 ([1]; bound stated, read-out: biochemical potency) |
| --- | --- | --- | --- | --- | --- | --- |
| Cc1cc(NC(=O)[C@H](O)c2cccc(F)c2)ccc1-c1cn(C)c2ncnc(N)c12 [Compound 11, (R)-N-(4-(4-amino-7-methyl-7H-pyrrolo[2,3-d]pyrimidin-5-yl)-3-methylphenyl)-2-(3-fluorophenyl)-2-hydroxy acetamide] | 2.2 nM |  |  |  |  |  |
| Cc1nc(N)c2c(-c3ccc(NC(=O)[C@H](O)c4cccc(F)c4)cc3C)cn(C)c2n1 [Compound 24] | 20 nM | 37500 ng·h/mL | 13100 ng/mL | 77% | 2.1 h |  |
| Cc1nc(N)c2c(-c3ccc(NC(=O)[C@H](O)c4cccc(C(F)(F)F)c4)cc3C)cn(C)c2n1 [Compound 26] | 2.8 nM | 126000 ng·h/mL | 17200 ng/mL | 82% | 3.5 h |  |
| Cc1nc(N)c2c(-c3ccc(NC(=O)[C@H](O)c4cc(F)cc(C(F)(F)F)c4)cc3C)cn(C)c2n1 [Compound 39] | 2.6 nM | 86400 ng·h/mL | 14300 ng/mL | 78% | 2.9 h |  |
| Cc1nc(N)c2c(-c3ccc(NC(=O)[C@H](O)c4cccc(F)c4)c(F)c3C)cn(C)c2n1 [Compound 65] | 1.9 nM | 40100 ng·h/mL | 8150 ng/mL | 129% | 2.2 h |  |
| Cc1nc(N)c2c(-c3cc(F)c(NC(=O)[C@H](O)c4cccc(F)c4)cc3C)cn(C)c2n1 [Compound 66] | 11 nM | 39800 ng·h/mL | 9610 ng/mL | 126% | 2 h |  |
| Cc1nc(N)c2c(-c3ccc(NC(=O)[C@H](O)c4cccc(F)c4)c(F)c3F)cn(C)c2n1 [Compound 70, (R)-N-(4-(4-amino-2,7-dimethyl-7H-pyrrolo[2,3-d]pyrimidin-5-yl)-2,3-difluorophenyl)-2-(3-fluorophenyl)-2-hydroxyacetamide] | 1.5 nM | 32300 ng·h/mL | 9720 ng/mL | 117% | 2 h |  |

Continued, values first:

| IC50 [1, 3] | AUC(0-t) [2] | Cmax [2] | bioavailability [2] | half-life [2] | IC50 ([1]; bound stated, read-out: biochemical potency) | SMILES |
| --- | --- | --- | --- | --- | --- | --- |
| 1.8 nM | 65800 ng·h/mL | 14100 ng/mL | 84% | 2.4 h |  | Cc1nc(N)c2c(-c3ccc(NC(=O)[C@H](O)c4cccc(Cl)c4)cc3C)cn(C)c2n1 [Compound 28] |
| 1.9 nM | 28900 ng·h/mL | 8600 ng/mL | 94% | 2 h |  | Cc1nc(N)c2c(-c3ccc(NC(=O)[C@H](O)c4cc(F)cc(F)c4)cc3C)cn(C)c2n1 [Compound 38] |
| 1.4 nM | 26000 ng·h/mL | 12500 ng/mL | 40% | 2.7 h |  | Cc1cc(F)cc([C@@H](O)C(=O)Nc2ccc(-c3cn(C)c4nc(C)nc(N)c34)c(C)c2)c1 [Compound 41] |
| 1 nM | 10900 ng·h/mL | 3020 ng/mL | 70% | 2.1 h | < 5 nM | Cc1nc(N)c2c(-c3ccc(NC(=O)[C@H](O)c4cccc(Cl)c4)cc3F)cn(C)c2n1 [Compound 48] |
